Earlier results on one compound are cited in patent US20090010992A1 (priority 2007, published 2009).

For this data set the following is noted: oral cherry-flavored syrup (Versed syrup).

For `Cc1ncc2n1-c1ccc(Cl)cc1C(c1ccccc1F)=NC2` [midazolam], the “bioavailability (erratic)” value was 30-50%.
